Class and IC50 data for 28 compounds are collected here from patent publication US20070010671A1, “Novel quinazoline derivatives and methods of treatment related to the use thereof” (priority 2003, published 2007).

The first assay addresses MCH receptor (Homo sapiens, UniProt Q99705). Put plainly: High throughput functional screening FLIPR/FDSS6000: inhibition of MCH-evoked intracellular Ca2+ changes. The format is cell-based. As to conditions: class by percent of control at 10^-7 M or IC50. The source says:
Subsequently, a functional based assay was used to confirm the lead hits, referred to as FLIPR™ (the Fluorometric Imaging Plate Reader) and FDSS6000™ (Functional Drug Screening System). This assay utilized 3 non-endozenous, constitutively active version of the MCH receptor.
The FLIPR and FDSS assays are able to detect intracellular Ca^2+ concentration in cells, which can be utilized to assess receptor activation and determine whether a candidate compound is an, for example, antagonist, inverse agonist or agonist to a Gq-coupled receptor. The concentration of free Ca^2+ in the cytosol of any cell is extremely low, whereas its concentration in the extracellular fluid and endoplasmic reticulum (ER) is very high. Thus, there is a large gradient tending to drive Ca^2+ into the cytosol across both the plasma membrane and ER. The FLIPR™ and FDSS6000™ systems (Molecular Devices Corporation, HAMAMATSU Photonics K.K.) are designed to perform functional cell-based assays, such as the measurement of intracellular calcium for high-throughput screening, The measurement of fluorescent is associated with calcium release upon activation of the Gq-coupled receptors.
Fluorometric Imaging Plate Reader system was used to allow for rapid, kinetic measurements of intracellular fluorescence in 96 well microplates (or 384 well microplates). Simultaneous measurements of fluorescence in all wells can be made by FLIPR or FDSS6000™ every second with high sensitivity and precision. These systems are ideal for measuring cell-based functional assays such as monitoring the intracellular calcium fluxes that occur within seconds after activation of the Gq coupled receptor.
Briefly, the cells are seeded into 96 well at 5.5×10^4 cells/well with complete culture media (Dulbecco's Modified Eagle Medium with 10% fetal bovine serum, 2 mMi L-glutamine, 1 mM sodium pyruvate and 0.5 mg/ml G418, pH 7.4) for the assay next day. On the day of assay, the media is removed and the cells are incubated with 100 μl of loading buffer (4 μM Fluo4-AM in complete culture media containing 2.5 mM Probenicid, 0.5 mg/ml and 0.2% bovine serum albumin) in 5% CO2 incubator at 37° C. for 1 hr. The loading buffer is removed, and the cells are washed with wash buffer (Hank's Balanced Salt Solution containing 2.5 mM Probenicid, 20 mM HEPES, 0.5 mg/ml and 0.2% bovine serum albumm, pH 7.4)). One hundred fifty μl of wash buffer containing various concentrations of test compound is added to the cells, and the cells are incubated in 5% CO2 incubator at 37° C. for 3 min. Fifty μl of wash buffer containing various concentration of MCH are added to each well, and transient changes in [Ca^2+]i evokled bee MCH are monoitored using the FLIPR, or FDSS in 96 shell plates at Ex. 488 nm and Em. 530 nm for 290 second. When antagonist activity of compound is tested, 50 nM of MCH is used.
Use of FLIPR™ and FDSS6000™ can be accomplished by following manufacturer's instruction (Molecular Device Corporation and HAMAMATSU Photonics K.K.).
For `C=C(C)c1cccc(C(C)(C)NC(=O)NC[C@H]2CC[C@@H](Nc3nc(N(C)C)c4ccccc4n3)CC2)c1` [compound 441], the class was 2 (Class 2: The value of percent of control at 10^−7 M was from 40% to 60% or the value of IC50 was from 50 nM to 200 nM.).
With `CN(C)c1nc(N[C@H]2CC[C@@H](CNC(=S)Nc3ccc(Cl)cc3)CC2)nc2ccccc12` [compound 588], the class is 3 (Class 3: The value of percent of control at 10^−7 M was more than 60% or the value of IC50 was more than 200 nM.).
The same measure, in the same setting: the value for `COc1ccc([N+](=O)[O-])cc1NC(=O)NC[C@H]1CC[C@@H](Nc2nc(N(C)C)c3ccccc3n2)CC1` [compound 505, N-[(cis-4-{[4-(dimethylamino)quinazolin-2-yl]amino}cyclohexyl)methyl]-N′-(2-methoxy-5-nitrophenyl)urea] was 2 (Class 2: The value of percent of control at 10^−7 M was from 40% to 60% or the value of IC50 was from 50 nM to 200 nM.).
Same read-out and setting: the value for `CN(C)c1nc(N[C@H]2CC[C@@H](CNC(=S)Nc3ccccc3C(F)(F)F)CC2)nc2ccccc12` [compound 632] was 3 (Class 3: The value of percent of control at 10^−7 M was more than 60% or the value of IC50 was more than 200 nM.); that for `COC(=O)[C@H](Cc1ccccc1)NC(=O)NC[C@H]1CC[C@@H](Nc2nc(N(C)C)c3ccccc3n2)CC1` (relative stereo) [compound 462] was 3 (Class 3: The value of percent of control at 10^−7 M was more than 60% or the value of IC50 was more than 200 nM.); that for `CC(=O)c1cccc(NC(=O)NC[C@H]2CC[C@@H](Nc3nc(N(C)C)c4ccccc4n3)CC2)c1` [compound 405] was 3 (Class 3: The value of percent of control at 10^−7 M was more than 60% or the value of IC50 was more than 200 nM.).
The same measure, in the same setting: the value for `Cc1noc(-c2ccccc2)c1NC(=O)NC[C@H]1CC[C@@H](Nc2nc(N(C)C)c3ccccc3n2)CC1` [compound 775] was 1 (Class 1: The value of percent of control at 10^−7 M was less than 40% or the value of IC50 was less than 50 nM.).
Turning to `Cc1cccc([N+](=O)[O-])c1NC(=O)NC[C@H]1CC[C@@H](Nc2nc(N(C)C)c3ccccc3n2)CC1` [compound 509, N-[(cis-4-{[4-(dimethylamino)quinazolin-2-yl]amino}cyclohexyl)methyl]-N′-(2-methyl-6-nitrophenyl)urea], the class is recorded as 1 (Class 1: The value of percent of control at 10^−7 M was less than 40% or the value of IC50 was less than 50 nM.).
As for `CN(C)c1nc(N[C@H]2CC[C@@H](NC(=S)NCCN3CCOCC3)CC2)nc2ccccc12` [compound 388], the class is recorded as 3 (Class 3: The value of percent of control at 10^−7 M was more than 60% or the value of IC50 was more than 200 nM.).
Same read-out and setting: the value for `CN(C)c1nc(N[C@H]2CC[C@@H](CNC(=S)Nc3ccccc3-c3ccccc3)CC2)nc2ccccc12` [compound 721] was 3 (Class 3: The value of percent of control at 10^−7 M was more than 60% or the value of IC50 was more than 200 nM.).
On the same count and under the same terms, next, `CSc1ccc(NC(=O)NC[C@H]2CC[C@@H](Nc3nc(N(C)C)c4ccccc4n3)CC2)cc1` [compound 448, N-[(cis-4-{[4-(dimethylamino)quinazolin-2-yl]amino}cyclohexyl)methyl]-N′-[4-(methylthio)phenyl]urea]: 1 (Class 1: The value of percent of control at 10^−7 M was less than 40% or the value of IC50 was less than 50 nM.); `CCc1cccc(NC(=O)NC[C@H]2CC[C@@H](Nc3nc(N(C)C)c4ccccc4n3)CC2)c1` [compound 531, N-[(cis-4-{[4-(dimethylamino)quinazolin-2-yl]amino}cyclohexyl)methyl]-N′-(3-ethylphenyl)urea]: 2 (Class 2: The value of percent of control at 10^−7 M was from 40% to 60% or the value of IC50 was from 50 nM to 200 nM.); `CN(C)c1nc(N[C@H]2CC[C@@H](CNC(=O)Nc3c(F)cccc3F)CC2)nc2ccccc12` [compound 426, N-(2,6-difluorophenyl)-N′-[(cis-4-{[4-(dimethylamino)quinazolin-2-yl]amino}cyclohexyl)methyl]urea]: 2 (Class 2: The value of percent of control at 10^−7 M was from 40% to 60% or the value of IC50 was from 50 nM to 200 nM.).
With `CN(C)c1nc(N[C@H]2CC[C@@H](CNC(=S)Nc3cc(C(F)(F)F)cc(C(F)(F)F)c3)CC2)nc2ccccc12` [compound 579], the class is on record as 3 (Class 3: The value of percent of control at 10^−7 M was more than 60% or the value of IC50 was more than 200 nM.).
Take `Cc1ccc(Cl)cc1NC(=S)NC[C@H]1CC[C@@H](Nc2nc(N(C)C)c3ccccc3n2)CC1` [compound 662]: the class was 2 (Class 2: The value of percent of control at 10^−7 M was from 40% to 60% or the value of IC50 was from 50 nM to 200 nM.).
In the case of `CCCCc1ccc(NC(=O)NC[C@H]2CC[C@@H](Nc3nc(N(C)C)c4ccccc4n3)CC2)cc1` [compound 561], the class was 3 (Class 3: The value of percent of control at 10^−7 M was more than 60% or the value of IC50 was more than 200 nM.).
In the case of `CN(C)c1ccc(NC(=S)N[C@H]2CC[C@@H](Nc3nc(N(C)C)c4ccccc4n3)CC2)cc1` [compound 386], the class was 3 (Class 3: The value of percent of control at 10^−7 M was more than 60% or the value of IC50 was more than 200 nM.).

The same assay, now with this note: class by percent of control at 10^-7 M or by IC50; read-out: class.
On to `CN(C)c1nc(N[C@H]2CC[C@@H](NC(=O)Nc3ccc(Br)cc3Br)CC2)nc2ccccc12` [compound 77, N-(2,4-dibromophenyl)-N′-(cis-4-{[4-(dimethylamino)quinazolin-2-yl]amino}cyclohexyl)urea], for which the IC50 is less than 50 nM.
Still for that read-out and setting: the value for `COc1ccc(NC(=O)N[C@H]2CC[C@@H](Nc3nc(N(C)C)c4ccccc4n3)CC2)c([N+](=O)[O-])c1` [compound 828] was greater than 200 nM.
On the same count and under the same terms, the value for `CN(C)c1nc(N[C@H]2CC[C@@H](CNC(=O)OCC3c4ccccc4-c4ccccc43)CC2)nc2ccccc12` [compound 884] was greater than 200 nM; that for `Cc1noc(C)c1NC(=S)NC[C@H]1CC[C@@H](Nc2nc(N(C)C)c3ccccc3n2)CC1` [compound 817] was greater than 200 nM.
As for `CN(C)c1nc(N[C@H]2CC[C@@H](NC(=O)NC(c3ccccc3)c3ccccc3)CC2)nc2ccccc12` [compound 844, N-(cis-4-{[4-(dimethylamino)quinazolin-2-yl]amino}cyclohexyl)-N′-(diphenylmethyl)urea], the IC50 was less than 50 nM.

The assay is the same for the next values; noted with them: class by percent of control at 10^−7 M or by IC50; read-out: class.
On to `CN(C)c1nc(N[C@H]2CC[C@@H](C(=O)NCc3cccc(F)c3F)CC2)nc2ccccc12` [Example 1159, cis-N-(2,3-difluorobenzyl)-4-{[4-(dimethylamino)quinazolin-2-yl]amino}cyclohexanecarboxamide], for which the IC50 was less than 50 nM.
The same measure, in the same setting: next, `COc1ccc(CNC(=O)[C@H]2CC[C@@H](Nc3nc(N(C)C)c4cc(F)c(F)cc4n3)CC2)cc1` [Example 994, cis-4-{[4-(dimethylamino)-6,7-difluoroquinazolin-2-yl]amino}-N-(4-methoxybenzyl)cyclohexanecarboxamide]: less than 50 nM; `CN(C)c1nc(N[C@H]2CC[C@@H](NC(=O)C(O)c3c(F)cccc3F)CC2)nc2ccccc12` (relative stereo) [Example 1110, 2-(2,6-difluorophenyl)-N-(cis-4-{[4-(dimethylamino)quinazolin-2-yl]amino}cyclohexyl)-2-hydroxyacetamide]: greater than 200 nM.
On the same count and under the same terms, next, `CN(C)c1nc(N[C@H]2CC[C@@H](C(=O)NCc3ccccc3OC(F)F)CC2)nc2ccccc12` [Example 1184, cis-N-[2-(difluoromethoxy)benzyl]-4-{[4-(dimethylamino)quinazolin-2-yl]amino}cyclohexanecarboxamide]: less than 50 nM; `CN(C)c1nc(N[C@H]2CC[C@@H](NC(=O)c3cccnc3Oc3cccc(F)c3)CC2)nc2ccccc12` [Example 1034, N-(cis-4-{[4-(dimethylamino)quinazolin-2-yl]amino}cyclohexyl)-2-(3-fluorophenoxy)nicotinamide]: less than 50 nM; `CN(C)c1nc(N[C@H]2CC[C@@H](NC(=O)c3cccnc3Oc3ccc(OC(F)(F)F)cc3)CC2)nc2ccccc12` [Example 1037, N-(cis-4-{[4-(dimethylamino)quinazolin-2-yl]amino}cyclohexyl)-2-[4-(trifluoromethoxy)phenoxy]nicotinamide]: less than 50 nM.
